pEC50: −log10 of the molar value. ≈ marks a conversion by molar mass, not a printed value.
Columns and labels:
[1] = target: human soluble guanylate cyclase alpha 1 and beta 1 subunits (sGC) (Homo sapiens (Human), UniProt Q02108+Q02153); assay: sGC cellular activator assay (cGMP, HTRF), in the presence and absence of 50% human serum; type: cell-based; details: CHO cells stably expressing human sGC alpha 1/beta 1, preincubated with 40 microM ODQ; cGMP by HTRF; Table 2 does not state whether with or without 50% human serum
human soluble guanylate cyclase alpha 1 and beta 1 subunits (sGC), sequence (Q02108 whole entry partner): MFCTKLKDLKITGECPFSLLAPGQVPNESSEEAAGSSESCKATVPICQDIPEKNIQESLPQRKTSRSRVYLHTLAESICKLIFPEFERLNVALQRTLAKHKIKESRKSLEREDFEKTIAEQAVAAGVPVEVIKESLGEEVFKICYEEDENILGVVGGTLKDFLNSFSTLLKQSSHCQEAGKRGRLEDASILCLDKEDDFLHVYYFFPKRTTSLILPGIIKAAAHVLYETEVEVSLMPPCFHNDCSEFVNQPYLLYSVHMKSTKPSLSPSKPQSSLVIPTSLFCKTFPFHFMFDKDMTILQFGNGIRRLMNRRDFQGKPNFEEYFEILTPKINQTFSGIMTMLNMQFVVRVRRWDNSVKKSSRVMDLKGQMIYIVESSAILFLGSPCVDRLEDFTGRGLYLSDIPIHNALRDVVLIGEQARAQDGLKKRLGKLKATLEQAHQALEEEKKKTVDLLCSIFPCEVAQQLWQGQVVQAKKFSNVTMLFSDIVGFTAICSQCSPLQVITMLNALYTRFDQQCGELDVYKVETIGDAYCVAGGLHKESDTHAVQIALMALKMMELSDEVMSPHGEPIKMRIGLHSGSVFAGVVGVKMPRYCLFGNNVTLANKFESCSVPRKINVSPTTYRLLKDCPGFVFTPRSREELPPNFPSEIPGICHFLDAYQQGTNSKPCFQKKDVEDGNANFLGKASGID
human soluble guanylate cyclase alpha 1 and beta 1 subunits (sGC), sequence (Q02153 whole entry): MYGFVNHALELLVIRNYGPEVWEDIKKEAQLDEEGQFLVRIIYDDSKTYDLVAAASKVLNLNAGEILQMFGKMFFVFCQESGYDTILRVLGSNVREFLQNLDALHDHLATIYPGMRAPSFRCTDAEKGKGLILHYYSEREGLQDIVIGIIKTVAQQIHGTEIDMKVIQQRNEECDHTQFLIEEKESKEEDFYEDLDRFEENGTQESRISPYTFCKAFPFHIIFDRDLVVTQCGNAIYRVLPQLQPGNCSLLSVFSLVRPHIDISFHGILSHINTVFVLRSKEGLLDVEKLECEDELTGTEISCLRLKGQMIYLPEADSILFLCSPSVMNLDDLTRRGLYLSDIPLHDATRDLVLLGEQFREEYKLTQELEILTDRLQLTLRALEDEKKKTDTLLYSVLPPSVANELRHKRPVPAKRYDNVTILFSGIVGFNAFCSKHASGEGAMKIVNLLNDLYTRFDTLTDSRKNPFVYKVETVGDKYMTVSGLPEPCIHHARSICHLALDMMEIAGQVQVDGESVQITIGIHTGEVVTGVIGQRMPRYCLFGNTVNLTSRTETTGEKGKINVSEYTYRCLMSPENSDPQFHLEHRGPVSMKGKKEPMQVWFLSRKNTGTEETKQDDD
Method in brief: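 First, CHO-sGC (human α1β1) cells get 1 h ODQ at 40 microM with IBMX and 0.1% BSA. Finally, cGMP is quantified by HTRF and EC50 computed.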

[2] = Human liver microsome (HLM) metabolic stability assay; type: in vitro ADME; details: human liver microsomes
Method in brief: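 Remaining parent measured by LC/MS/MS (ESI, MRM) at 5, 15, 30 and 60 min relative to 0 min. Incubation: 1 uM compound, HLMs, NADPH-started, 37° C., 60 min total, single replicate. Slope of ln(% remaining) gives t1/2 = 0.693/slope, then CLint, CLh and % Qh.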

physchem = details: kinetic from dmso stock
[3] = pH 2.2, aqueous buffer, Solubility (pH 2.2)
[4] = pH 4.5, aqueous buffer, Solubility (pH 4.5)
[5] = pH 6.8, aqueous buffer, Solubility (pH 6.8)

SMILES	pEC50 [1]	Metabolic stability (Qh %), % hepatic blood flow [2] [%]	solubility at 24 h (physchem; [3]) [µg/mL]	solubility at 24 h (physchem; [4]) [µg/mL]	solubility at 24 h (physchem; [5]) [µg/mL]
COC[C@H]1N(c2cccc(-c3cccc(F)c3OCc3ccc4c(c3C)CCN(C3CCOCC3)CC4)n2)C[C@@H]2C[C@@]21C(=O)O [Compound 212]	7.47	<24	136 (≈ 221 µM)	96.6 (≈ 157 µM)	72.7 (≈ 118 µM)
COC[C@H]1N(c2nc(-c3cccc(C)c3OCc3cc(C)c4c(c3)CCN(C3CCOCC3)C4)cs2)C[C@@H]2C[C@@]21C(=O)O [Compound 162]	8.40	39	120 (≈ 199 µM)	82 (≈ 136 µM)	75 (≈ 124 µM)
Cc1c(COc2ccccc2-c2cccc(N3CC[C@@]4(C(=O)O)C[C@H]4C3)n2)ccc2c1CCN([C@H]1CCCOC1)C2 [Compound 11]	8.40	53	140 (≈ 253 µM)	110 (≈ 199 µM)	46 (≈ 83.1 µM)
CO[C@H]1CN(c2nc(-c3cccc(Cl)c3OCc3ccc4c(c3)[C@H](C)CN(C3COC3)CC4)cs2)CC[C@H]1C(=O)O [Compound 322]	8.15	47	110 (≈ 184 µM)	36.4 (≈ 60.9 µM)	60.2 (≈ 101 µM)
CCO[C@H]1CN(c2nccc(-c3cccc(C)c3OCc3ccc4c(c3C)CCN(C3CCOCC3)CC4)n2)CC[C@H]1C(=O)O [Compound 275]	7.49	28	117 (≈ 190 µM)	81.3 (≈ 132 µM)	84.5 (≈ 137 µM)
COC[C@H]1N(c2cccc(-c3cccc(C)c3OCc3cc4c(c(OC)c3)CN(C3CCOCC3)CC4)n2)C[C@@H]2C[C@@]21C(=O)O [Compound 57]	7.68	<24	120 (≈ 196 µM)	99 (≈ 161 µM)	78 (≈ 127 µM)
Cc1cccc(-c2csc(N3CC[C@@]4(C(=O)O)C[C@H]4C3)n2)c1OCc1ccc2c(c1)CCN(C1CCOCC1)C2 [Compound 84]	7.57	<24	120 (≈ 214 µM)	70 (≈ 125 µM)	53 (≈ 94.7 µM)
Cc1cccc(-c2cccc(N3C[C@@H]4C[C@]4(C(=O)O)C3)n2)c1OCc1cc(C#N)c2c(c1)CCN(C1COC1)C2 [Compound 29]	7.74	<24	110 (≈ 205 µM)	76 (≈ 142 µM)	79 (≈ 147 µM)
Cc1ccc(OCc2cc(C)c3c(c2)CCN(C2CCOCC2)C3)c(-c2csc(N3CC[C@@]4(C(=O)O)C[C@H]4C3)n2)c1 [Compound 123]	8.00	<24	120 (≈ 209 µM)	32 (≈ 55.8 µM)	3.3 (≈ 5.75 µM)
Cc1ccc(OCc2cc(C)c3c(c2)CCN(C2CCOC2)C3)c(-c2csc(N3CC[C@@]4(C(=O)O)C[C@H]4C3)n2)c1 (mixture of isomers) [Compound 122]	7.96	43	120	18	1.6
COCc1cc(COc2c(C)cccc2-c2cccc(N3C[C@@H]4C[C@]4(C(=O)O)[C@H]3COC)n2)cc2c1CN(C1CCOCC1)CC2 [Compound 279]	7.19	<24	128 (≈ 203 µM)	100 (≈ 160 µM)	82.8 (≈ 132 µM)
Cc1ccc(OCc2ccc3c(c2)CCN(C2CCCOC2)C3)c(-c2csc(N3CC[C@@]4(C(=O)O)C[C@H]4C3)n2)c1 (some centres unmarked) [Compound 113]	8.30	<24	130 (≈ 232 µM)	36 (≈ 64.3 µM)	2.7 (≈ 4.82 µM)
COCc1cc(COc2c(C)cccc2-c2cccc(N3C[C@@H]4C[C@]4(C(=O)O)[C@H]3COC)n2)cc2c1CN(C1CCOC1)CC2 (some centres unmarked) [Compound 280]	6.85	30	120 (≈ 196 µM)	91 (≈ 148 µM)	79.3 (≈ 129 µM)
O=C(O)[C@@]12CCN(c3nc(-c4ccccc4OCc4ccc5c(c4)CCN(C4CCOCC4)C5)cs3)C[C@@H]1C2 [Compound 82]	8.00	<24	100 (≈ 183 µM)	40 (≈ 73.3 µM)	22 (≈ 40.3 µM)
COC[C@H]1N(c2nc(-c3cccc(C)c3OCc3cc(C)c4c(c3)CCN(C3COC3)C4)cs2)C[C@@H]2C[C@@]21C(=O)O [Compound 161]	8.15	<24	110 (≈ 191 µM)	62 (≈ 108 µM)	76 (≈ 132 µM)

Other lines, results leading:

pEC50 [1]	Metabolic stability (Qh %), % hepatic blood flow [2] [%]	solubility at 24 h (physchem; [3]) [µg/mL]	solubility at 24 h (physchem; [4]) [µg/mL]	solubility at 24 h (physchem; [5]) [µg/mL]	SMILES
8.52	<24	120 (≈ 214 µM)	18 (≈ 32.2 µM)	1.3 (≈ 2.32 µM)	Cc1ccc(OCc2ccc3c(c2C)CCN(C2CCOC2)C3)c(-c2csc(N3CC[C@@]4(C(=O)O)C[C@H]4C3)n2)c1 (some centres unmarked) [Compound 119]
7.59	<24	120 (≈ 198 µM)	61 (≈ 101 µM)	55 (≈ 90.8 µM)	CO[C@H]1CN(c2nc(-c3cc(C)ccc3OCc3ccc4c(c3C)CCN(C3CCOCC3)CC4)cs2)CC[C@H]1C(=O)O [Compound 182]
7.72	<24	127 (≈ 223 µM)	101 (≈ 176 µM)	81.2 (≈ 142 µM)	CO[C@@H]1CN(c2cccc(-c3cccc(C)c3OCc3ccc4c(c3C)CN(C3CCOCC3)C4)n2)CC[C@@H]1C(=O)O [Compound 307]
8.30	61	99.8 (≈ 168 µM)	51.8 (≈ 87 µM)	59.1 (≈ 99.2 µM)	CO[C@@H]1CN(c2nc(-c3cc(F)cc(C)c3OCc3ccc4c(c3C)CCN(C3COC3)CC4)cs2)CC[C@@H]1C(=O)O [Compound 327]
6.96	<24	130 (≈ 222 µM)	110 (≈ 188 µM)	81 (≈ 138 µM)	CO[C@H]1CN(c2cccc(-c3cc(C)ccc3OCc3ccc4c(c3C)CCN(C3CCOCC3)C4)n2)CC[C@H]1C(=O)O [Compound 71]
8.40	<24	135 (≈ 215 µM)	56.6 (≈ 90.1 µM)	51.8 (≈ 82.5 µM)	COc1cc(COc2c(Cl)cccc2-c2csc(N3CC[C@@H](C(=O)O)[C@@H](OC)C3)n2)cc2c1CN(C1CCOCC1)CC2 [Compound 264]
7.85	<24	110 (≈ 186 µM)	72 (≈ 122 µM)	5.1 (≈ 8.62 µM)	CO[C@H]1CN(c2nc(-c3cc(C)ccc3OCc3ccc4c(c3C)CCN(C3CCOCC3)C4)cs2)CC[C@H]1C(=O)O [Compound 178]
7.46	<24	140 (≈ 257 µM)	11 (≈ 20.2 µM)	6 (≈ 11 µM)	Cc1ccc(OCc2ccc3c(c2C)CCN(C2COC2)C3)c(-c2csc(N3CC[C@@]4(C(=O)O)C[C@H]4C3)n2)c1 [Compound 116]
8.05	<24	127 (≈ 208 µM)	7.7 (≈ 12.6 µM)	1.1 (≈ 1.8 µM)	CO[C@H]1CN(c2nc(-c3cc(C)ccc3OCc3cc(C)c4c(c3F)CCN(C3CCOCC3)C4)cs2)CC[C@H]1C(=O)O [Compound 253]
7.77	<24	110 (≈ 197 µM)	54 (≈ 96.5 µM)	0.58 (≈ 1.04 µM)	Cc1ccc(OCc2ccc3c(c2)CCN(C2CCOCC2)C3)c(-c2csc(N3CC[C@@]4(C(=O)O)C[C@H]4C3)n2)c1 [Compound 110]
8.40	<24	126 (≈ 206 µM)	116 (≈ 191 µM)	115 (≈ 189 µM)	CO[C@H]1CN(c2nc(-c3cccc(C)c3OCc3cc(C)c4c(c3F)CCN(C3CCOCC3)C4)cs2)CC[C@H]1C(=O)O [Compound 242]
7.74	<24	117 (≈ 193 µM)	75.5 (≈ 125 µM)	71.8 (≈ 119 µM)	CO[C@H]1CN(c2nc(-c3cccc(C)c3OCc3ccc4c(c3C)CCN(C3CCOCC3)CC4)cs2)CC[C@H]1C(=O)O [Compound 288]
6.72	<24	135 (≈ 217 µM)	124 (≈ 200 µM)	122 (≈ 197 µM)	CCO[C@H]1CN(c2nc(-c3cc(C)ccc3OCc3cc4c(c(OC)c3)CN(C3CCOCC3)CC4)cs2)CC[C@H]1C(=O)O [Compound 233]
6.24	34	131 (≈ 224 µM)	98.1 (≈ 167 µM)	80.1 (≈ 137 µM)	CO[C@H]1CN(c2cccc(-c3cccc(C)c3OCc3cc(C)c4c(c3)CCN(C3CCOCC3)C4)n2)CC[C@@H]1C(=O)O [Compound 298]
8.15	<24	130 (≈ 218 µM)	98 (≈ 165 µM)	85 (≈ 143 µM)	CO[C@H]1CN(c2nc(-c3cccc(C)c3OCc3cc(F)c4c(c3)CCN(C3CCOCC3)C4)cs2)CC[C@H]1C(=O)O [Compound 172]
7.85	26	118 (≈ 194 µM)	67.5 (≈ 111 µM)	2.9 (≈ 4.77 µM)	COc1cc(COc2ccc(C)cc2-c2csc(N3CC[C@@H](C(=O)O)[C@@H](OC)C3)n2)cc2c1CN(C1CCOCC1)CC2 [Compound 254]

— patent US9353090B2, “Heterocyclic carboxylic acids as activators of soluble guanylate cyclase” (Boehringer Ingelheim International GmbH, priority 2014, dated 2016)
